Data set [1] concerns RAW264.7. Put plainly: Inhibition of LPS-induced NO production in mouse RAW264.7 cells preincubated for 1 hr followed by LPS stimulation measured after 24 hrs by Griess assay. It is filed as functional, cell-based.
The subject of data set [2] is RAW264.7. Put plainly: Pro-inflammatory activity in mouse RAW264.7 cells assessed as LPS-induced NO production at 0.625 to 60 uM preincubated for 1 hr followed by LPS stimulation measured after 24 hrs by Griess assay. Conditions: raw264.7, 24 h; call rule not given here. In kind it is ADME, cell-based. In general terms: Griess reagent forms a coloured azo dye with nitrite.
Setting [3] is: Mus musculus, RAW264.7, read-out: IC50.

Data on seven compounds can be found in ChEMBL document CHEMBL4028829, “New derivatives of ursolic acid through the biotransformation by Bacillus megaterium CGMCC 1.1741 as inhibitors on nitric oxide production” (Bioorg Med Chem Lett, 2017).

For orientation: IC50 means the concentration needed to halve the response being measured.

Turning to `C[C@H]1[C@H](C)CC[C@]2(C(=O)O)CC[C@]3(C)C(=C[C@@H](O)[C@@H]4[C@@]5(C)[C@H](O)C[C@H](O)C(C)(C)[C@@H]5CC[C@]43C)[C@H]12`, in the data set with RAW264.7 [1] (setting [3]), the IC50 amounted to 40.1 µM.
With `C[C@H]1[C@H](C)CC[C@]2(C(=O)O)CC[C@]3(C)C(=C[C@@H](O)[C@@H]4[C@@]5(C)[C@H](O)CC(=O)C(C)(C)[C@@H]5CC[C@]43C)[C@H]12`, the 50% inhibitory concentration (IC50) in the data set with RAW264.7 [1] (setting [3]) was 1.24 µM.
The same measure, in the same setting: for `C[C@H]1[C@H](C)CC[C@]2(C(=O)O[C@@H]3O[C@H](CO)[C@@H](O)[C@H](O)[C@H]3O)CC[C@]3(C)C(=C[C@@H](O)[C@@H]4[C@@]5(C)[C@H](O)CC(=O)C(C)(C)[C@@H]5CC[C@]43C)[C@H]12` the value was > 60 µM.
Still for that read-out and setting: for `C[C@H]1[C@H](C)CC[C@@]23CC[C@]4(C)[C@@](C=C[C@@H]5[C@@]6(C)[C@H](O)CC(=O)C(C)(C)[C@@H]6CC[C@]54C)(OC2=O)[C@H]13` the value was 1.71 µM; for `O=c1c(O)c(-c2ccc(O)c(O)c2)oc2cc(O)cc(O)c12` [QUERCETIN], 4.41 µM.
Regarding `C[C@H]1[C@H](C)CC[C@]2(C(=O)O)CC[C@]3(C)C(=CC[C@@H]4[C@@]5(C)CC[C@H](O)C(C)(C)[C@@H]5CC[C@]43C)[C@H]12` [URSOLIC ACID], the Activity entry with RAW264.7 [2] is “Toxic”. Further, the IC50 entry in the data set on RAW264.7 [1] (raw264.7) is on record as “Not Active”.
For the compound `C[C@H]1[C@H](C)CC[C@]2(C(=O)O)CC[C@]3(C)C(=CC[C@@H]4[C@@]5(C)CCC(=O)C(C)(C)[C@@H]5CC[C@]43C)[C@H]12` [URSONIC ACID], in the data set on RAW264.7 [1] (setting [3]), the half-maximal inhibitory concentration (IC50) turned out to be 4.94 µM.
